The test system of one assay is U937 cells. Kind of assay: U937 leukemia xenograft, human CD45+ cells in bone marrow. The assay is classed as in vivo, mice. To be noted: 1 mg/kg i.p., day 16. The method, then: Xenograft studies using NB4 and U937-AML cells were performed in NOG SCID mice under specific pathogen–free conditions. Cells (0.2 × 10^6 in 100 µL) were injected intravenously (retro orbital vein). Injected mice were randomly assigned to receive intra-peritoneal MC2884 (1 mg/kg) or vehicle for two weeks (8 doses) (10 mice per group). All animal procedures were performed in accordance with protocols approved by the local Committee for Animal Experimentation and with the permission of the Italian Health Ministry (n° 626/2015). At 16 days after injection, mice were sacrificed and the femurs and spleens were collected. Bone marrow (BM) and spleen cells were analyzed by FACS. To avoid non-specific stain, cells were mixed with mouse IgG and incubated with indicated antibodies for 30’. The mixture was depleted of erythrocytes and fixed (BD Pharmingen). […] Tumor growth was monitored by weekly bioluminescence imaging (BLI) acquisitions using an IVIS 3D Imaging System (Caliper Alameda, USA). To quantify bioluminescence, the integrated fluxes of photons (photons per s) within each area of interest were determined using the Living Images Software Package 3.2 (Caliper, Alameda, USA). […] Efficacy of drug treatment was assessed as inhibition of BLI emission comparing those MC2884 treated mice group and vehicle groups.
(A xenograft is tissue or cells of one species grown in another, often human tumour cells in immunodeficient mice.)

The target in the next assay is T1, CYP1A (Homo sapiens, UniProt P05177).
T1 construct: from tissue; host or cells: human liver microsomes
T1 sequence (P05177 2-516 limits assumed): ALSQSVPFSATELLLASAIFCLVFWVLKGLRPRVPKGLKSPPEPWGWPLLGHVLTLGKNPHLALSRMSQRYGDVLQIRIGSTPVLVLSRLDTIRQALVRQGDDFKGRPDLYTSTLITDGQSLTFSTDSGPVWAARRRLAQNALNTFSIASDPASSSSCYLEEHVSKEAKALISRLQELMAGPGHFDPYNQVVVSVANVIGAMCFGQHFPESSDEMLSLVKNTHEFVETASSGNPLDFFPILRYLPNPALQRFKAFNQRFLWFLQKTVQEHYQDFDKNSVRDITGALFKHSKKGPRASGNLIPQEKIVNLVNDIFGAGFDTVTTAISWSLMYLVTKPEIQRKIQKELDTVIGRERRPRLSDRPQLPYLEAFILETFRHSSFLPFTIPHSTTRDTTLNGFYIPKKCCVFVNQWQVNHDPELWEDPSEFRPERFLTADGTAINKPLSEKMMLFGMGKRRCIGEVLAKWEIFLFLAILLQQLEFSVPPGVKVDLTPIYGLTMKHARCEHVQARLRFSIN
The experiment in a line: Cytochrome P450 inhibition, CYP1A. Format: in vitro ADME. To be noted: human liver microsomes, probe ethoxyresorufin. The method, then: This provided a dose of 2 mg free base material/kg when Cytochrome p450 inhibition (5 isoform iC50 administered iv in a 5 mL/kg dosing volume. determination) mouse terminal ip pK study ADME-Tox Cytochrome P450 inhibition of Compound MC2884 was given ip at a dose of 2 mg/kg MC2884 using human liver microsomes as an estimation to a group of 24 normally fed male CD1 mice in a 10 mL/ of in vitro metabolism. kg injection volume. Terminal blood samples (> 230 μL) MC2884 (0.1 μM–25 μM) was incubated with were taken under CO2 from groups of 3 mice at each of 8 human liver microsomes and NADPH in the presence time-points post dose (0.083, 0.25, 0.5, 1, 2, 4, 8 and 24 h) of a cytochrome P450 isoform-specific probe substrate. and placed into heparinized tubes. Samples were placed on ice For the CYP2C9, CYP2C19, CYP2D6 and CYP3A4 for no longer than 30 min before centrifugation (10,000 rpm × specific reactions, the metabolites were monitored by 3 min). […]
Cyp2C19 inhibition (0.1 mg/mL) and NADPH (1 mM) in the presence of the probe substrate midazolam (2.5 μM) for 5 min at Six test compound samples at concentrations 37° C. […] For the CYP1A incubations, the reactions microsomes (0.5 mg/mL) and NADPH (1 mM) in the were terminated by methanol, and the formation of the presence of the probe substrate mephenytoin (25 μM) metabolite, resorufin, was monitored by fluorescence for 60 min at 37° C. […]
For orientation: Liver microsomes are a subcellular fraction often used to study metabolism.

We go through one molecule from PMC5986654, “Combined HAT/EZH2 modulation leads to cancer-selective cell death” (Oncotarget, 2018).

Some results are limits rather than exact numbers.

As to `O=C1/C(=C/c2cccc(Br)c2)CN(Cc2ccccc2)C/C1=C\c1cccc(Br)c1` [MC2884], in the assay with U937 cells, the “human CD45+ cells in the bone marrow reduced to” value came out at 24%. Besides, on CYP1A, the IC50 was above 25 µM.

Broadly, the IC50 is the concentration that gives 50% inhibition.
